Laboratory results reported in BindingDB's records for PubMed 20068177 (Wyeth Research).

Target: Phosphatidylinositol 3-kinase regulatory subunit alpha/4,5-bisphosphate 3-kinase catalytic subunit alpha isoform (Homo sapiens, UniProt P27986+P42336)
Assay: Inhibition of recombinant human full-length N-terminal His6-tagged p110alpha/full length untagged human p85alpha expressed in baculovirus infected Sf21 insect cells using PIP2 as substrate measured after 15 to 30 mins by fluorescence polarization assay

Chain of Phosphatidylinositol 3-kinase regulatory subunit alpha/4,5-bisphosphate 3-kinase catalytic subunit alpha isoform (P27986 whole entry, canonical isoform): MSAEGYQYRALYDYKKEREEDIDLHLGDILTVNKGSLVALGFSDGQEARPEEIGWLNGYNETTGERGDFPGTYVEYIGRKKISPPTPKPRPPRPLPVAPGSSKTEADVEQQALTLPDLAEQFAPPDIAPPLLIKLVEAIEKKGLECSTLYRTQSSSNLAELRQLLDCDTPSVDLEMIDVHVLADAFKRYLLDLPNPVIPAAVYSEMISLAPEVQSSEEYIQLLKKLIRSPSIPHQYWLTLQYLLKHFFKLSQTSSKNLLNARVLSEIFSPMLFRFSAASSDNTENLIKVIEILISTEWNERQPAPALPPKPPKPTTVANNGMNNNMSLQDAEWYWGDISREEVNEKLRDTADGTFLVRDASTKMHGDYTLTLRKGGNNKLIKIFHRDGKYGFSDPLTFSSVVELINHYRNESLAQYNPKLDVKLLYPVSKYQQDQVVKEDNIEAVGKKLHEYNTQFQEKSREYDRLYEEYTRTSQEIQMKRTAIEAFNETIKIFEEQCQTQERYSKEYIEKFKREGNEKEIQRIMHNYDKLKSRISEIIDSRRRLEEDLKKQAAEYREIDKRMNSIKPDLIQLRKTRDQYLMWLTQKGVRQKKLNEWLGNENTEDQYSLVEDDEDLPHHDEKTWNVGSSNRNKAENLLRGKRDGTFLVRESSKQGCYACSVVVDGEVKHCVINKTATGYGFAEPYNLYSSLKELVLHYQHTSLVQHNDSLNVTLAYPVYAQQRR
Chain of Phosphatidylinositol 3-kinase regulatory subunit alpha/4,5-bisphosphate 3-kinase catalytic subunit alpha isoform (P42336 whole entry, canonical isoform): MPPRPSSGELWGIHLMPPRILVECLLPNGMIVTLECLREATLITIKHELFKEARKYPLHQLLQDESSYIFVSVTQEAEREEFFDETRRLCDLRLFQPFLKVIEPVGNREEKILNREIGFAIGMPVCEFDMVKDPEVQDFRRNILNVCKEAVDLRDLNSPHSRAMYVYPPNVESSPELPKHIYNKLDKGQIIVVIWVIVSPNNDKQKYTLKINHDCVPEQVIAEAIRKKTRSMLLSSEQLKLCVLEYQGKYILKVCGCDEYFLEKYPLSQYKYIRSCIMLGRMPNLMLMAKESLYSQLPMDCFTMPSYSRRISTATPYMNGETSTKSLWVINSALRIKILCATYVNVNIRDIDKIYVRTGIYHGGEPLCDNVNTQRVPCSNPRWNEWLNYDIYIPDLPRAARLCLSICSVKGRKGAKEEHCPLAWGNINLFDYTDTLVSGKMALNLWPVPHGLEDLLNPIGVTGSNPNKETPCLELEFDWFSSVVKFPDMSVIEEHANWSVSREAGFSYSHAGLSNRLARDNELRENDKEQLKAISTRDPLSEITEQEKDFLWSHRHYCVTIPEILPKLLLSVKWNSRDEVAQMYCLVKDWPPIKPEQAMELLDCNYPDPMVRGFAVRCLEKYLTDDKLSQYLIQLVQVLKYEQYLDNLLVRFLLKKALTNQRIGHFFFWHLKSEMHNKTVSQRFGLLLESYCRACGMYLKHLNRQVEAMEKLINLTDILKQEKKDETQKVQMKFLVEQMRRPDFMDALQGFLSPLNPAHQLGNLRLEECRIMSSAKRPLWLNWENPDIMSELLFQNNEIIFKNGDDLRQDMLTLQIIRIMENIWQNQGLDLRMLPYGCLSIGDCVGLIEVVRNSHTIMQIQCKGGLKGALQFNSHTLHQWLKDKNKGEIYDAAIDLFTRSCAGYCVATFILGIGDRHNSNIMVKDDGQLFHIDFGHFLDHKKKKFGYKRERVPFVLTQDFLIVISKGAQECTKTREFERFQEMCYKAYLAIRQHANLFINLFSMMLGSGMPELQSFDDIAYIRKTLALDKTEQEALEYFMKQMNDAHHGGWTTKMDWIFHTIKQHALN

CNC(=O)Nc1ccc(-c2nc(N3CC4CCC(C3)O4)c3cnn(C4CCC5(CC4)OCCO5)c3n2)cc1 [1-(4-(4-(8-oxa-3-azabicyclo[3.2.1]octan-3-yl)-1-(1,4-dioxaspiro[4.5]decan-8-yl)-1H-pyrazolo[3,4-d]pyrimidin-6-yl)phenyl)-3-methylurea]
IC50: 1.18 µM
